Assay [1] has as its system weed plants such as Digitaria sanguinalis, Echinochloa crus-galli, Setaria faberi, Setaria viridis, Sorghum halepense, Abutilon theophrasti, Amaranthum …. The assay can be described thus: Pre-emergence effect on weeds (greenhouse pot test). The class given is in vivo, monocotyledonous and dicotyledonous weed plants. Conditions: application rate of 1 kg or less of active substance per hectare; scored visually after 3 to 4 weeks by comparison with untreated controls. An excerpt: Seeds or rhizome pieces of monocotyledonous and dicotyledonous weed plants are placed in sandy loam soil in plastic pots and covered with soil. The compounds according to the invention which are formulated in the form of wettable powders or emulsion concentrates are then applied to the surface of the soil cover in the form of aqueous suspensions or emulsions at an application rate of 600 to 800 l of water/ha (converted), in various dosages.
After the treatment, the pots are placed in a greenhouse and kept under good growth conditions for the weeds. After the test plants have emerged, the damage to the plants or the negative effect on the emergence is scored visually after a test period of 3 to 4 weeks by comparison with untreated controls. As shown by the test results, compounds according to the invention have good herbicidal pre-emergence activity against a broad spectrum of weed grasses and broad-leafed weeds.

Assay [2] deals with harmful plants such as Digitaria sanguinalis, Echinochloa crus-galli, Setaria faberi, Setaria viridis, Sorghum halepense, Abutilon theophrasti, Amaranthum …. The assay can be described thus: Post-emergence effect on weeds (greenhouse pot test). The class given is in vivo, monocotyledonous and dicotyledonous weeds. Conditions: application rate of 1 kg and less of active substance per hectare; treated at three-leaf stage; scored visually after about 3 to 4 weeks by comparison with untreated controls. The protocol:
Seeds or rhizome pieces of monocotyledonous and dicotyledonous weeds are placed in sandy loam soil in plastic pots, covered with soil and grown in a greenhouse under good growth conditions. Three weeks after sowing, the test plants are treated at the three-leaf stage. The compounds according to the invention which were formulated as wettable powders or emulsion concentrates are sprayed, at various dosages, onto the green parts of the plants at an application rate of 600 to 800 l of water/ha (converted). After the test plants have remained in the greenhouse for about 3 to 4 weeks under optimum growth conditions, the effect of the preparations is scored visually by comparison with untreated controls. The agents according to the invention also have good herbicidal activity post-emergence against a broad spectrum of economically important weed grasses and broad-leafed weeds.

This passage reports herbicidal activity pre-emergence and herbicidal activity post-emergence results from patent publication US20030171218A1, “Substituted 3-heteroaryl(amino- or oxy)pyrrolidin-2-ones, their preparation and use as herbicides or plant growth regulators” (priority 2001, published 2003).

SMILES strings stand for the structures.

Consider `CC(C)c1nc(N)nc(OC2CCN(c3cccc(Cl)c3)C2=O)n1` (centres unmarked) [Example A52], for which the herbicidal activity pre-emergence entry in assay [1] was “very good herbicidal activity”. In addition, the herbicidal activity post-emergence result in assay [2] is “very good herbicidal activity”.
For `CC(C)(F)c1nc(N)nc(OC2CCN(c3cccc(C(F)(F)F)c3)C2=O)n1` (centres unmarked) [Example A54], in assay [1], the herbicidal activity pre-emergence entry is recorded as “very good herbicidal activity”. Also, the herbicidal activity post-emergence result in assay [2] is on record as “very good herbicidal activity”.
With `Cc1nc(N)nc(NC2CCN(c3cccc(C(F)(F)F)c3)C2=O)n1` (centres unmarked) [Example A3], the herbicidal activity pre-emergence entry in assay [1] is “very good herbicidal activity”. The herbicidal activity post-emergence result in assay [2] was “very good herbicidal activity”.
`CC(F)c1nc(N)nc(N(C)C2CCN(c3cccc(Cl)c3)C2)n1` (centres unmarked) [Example E64]: the herbicidal activity pre-emergence entry in assay [1] is given as “very good herbicidal activity”. The herbicidal activity post-emergence result in assay [2] is reported as “very good herbicidal activity”.
For `Cc1cccc(N2CCC(Oc3nc(N)nc(C(C)C)n3)C2=O)c1` (centres unmarked) [Example A47], the herbicidal activity pre-emergence result in assay [1] was “very good herbicidal activity”. In addition, in assay [2], the herbicidal activity post-emergence result was “very good herbicidal activity”.
Turning to `Cc1cc(C)cc(N2CCC(N(C)c3nc(N)nc(C(C)C)n3)C2)c1` (centres unmarked) [Example E68], the herbicidal activity pre-emergence result in assay [1] is listed as “very good herbicidal activity”. Further, the herbicidal activity post-emergence entry in assay [2] is “very good herbicidal activity”.
With `CC(F)c1nc(N)nc(N(C)C2CCN(c3cccc(C(F)(F)F)c3)C2=O)n1` (centres unmarked) [Example A64], the herbicidal activity pre-emergence result in assay [1] is “very good herbicidal activity”. Moreover, in assay [2], the herbicidal activity post-emergence result is reported as “very good herbicidal activity”.
For `CC(F)c1nc(N)nc(OC2CCN(c3cccc(C(F)(F)F)c3)C2=O)n1` (centres unmarked) [Example A37], in assay [1], the herbicidal activity pre-emergence result is on record as “very good herbicidal activity”. Moreover, in assay [2], the herbicidal activity post-emergence entry was “very good herbicidal activity”.
For `CC(C)(F)c1nc(N)nc(NC2CCN(c3cccc(Cl)c3)C2)n1` (centres unmarked) [Example E16], the herbicidal activity pre-emergence entry in assay [1] is “very good herbicidal activity”. The herbicidal activity post-emergence result in assay [2] is listed as “very good herbicidal activity”.
For the compound `Cc1cc(N2CCC(N(C)c3nc(N)nc(C(C)(C)F)n3)C2=O)ccc1F` (centres unmarked) [Example A83], the herbicidal activity pre-emergence entry in assay [1] was “very good herbicidal activity”. Moreover, the herbicidal activity post-emergence result in assay [2] is “very good herbicidal activity”.
As to `Cc1cc(N2CCC(Oc3nc(N)nc(C(C)F)n3)C2=O)ccc1F` (centres unmarked) [Example A40], the herbicidal activity pre-emergence result in assay [1] was “very good herbicidal activity”. The herbicidal activity post-emergence entry in assay [2] is recorded as “very good herbicidal activity”.
As for `CC(C)c1nc(N)nc(N(C)C2CCN(c3cccc(OC(F)(F)F)c3)C2=O)n1` (centres unmarked) [Example A75], the herbicidal activity pre-emergence result in assay [1] was “very good herbicidal activity”. Besides, the herbicidal activity post-emergence result in assay [2] is “very good herbicidal activity”.
For `COc1cccc(N2CCC(Nc3nc(C)nc(N)n3)C2=O)c1` (centres unmarked) [Example A7], the herbicidal activity pre-emergence result in assay [1] was “very good herbicidal activity”. Further, the herbicidal activity post-emergence result in assay [2] is on record as “very good herbicidal activity”.
In the case of `CN(c1nc(N)nc(C(C)(C)F)n1)C1CCN(c2cccc(C(F)(F)F)c2)C1=O` (centres unmarked) [Example A81], the herbicidal activity pre-emergence result in assay [1] was “very good herbicidal activity”. Moreover, the herbicidal activity post-emergence result in assay [2] was “very good herbicidal activity”.
Turning to `COc1cccc(N2CCC(Nc3nc(N)nc(C(C)(C)F)n3)C2=O)c1` (centres unmarked) [Example A30], the herbicidal activity pre-emergence result in assay [1] is on record as “very good herbicidal activity”. Moreover, the herbicidal activity post-emergence entry in assay [2] is recorded as “very good herbicidal activity”.
Turning to `Cc1cc(N2CCC(N(C)c3nc(N)nc(C(C)C)n3)C2=O)ccc1F` (centres unmarked) [Example A73], the herbicidal activity pre-emergence result in assay [1] is reported as “very good herbicidal activity”. Also, the herbicidal activity post-emergence entry in assay [2] was “very good herbicidal activity”.
For `CC(C)c1nc(N)nc(NC2CCN(c3cccc(OC(F)(F)F)c3)C2=O)n1` (centres unmarked) [Example A26], the herbicidal activity pre-emergence entry in assay [1] was “very good herbicidal activity”. Further, in assay [2], the herbicidal activity post-emergence result is “very good herbicidal activity”.
Take `Cc1cc(N2CCC(Nc3nc(N)nc(C(C)C)n3)C2)ccc1F` (centres unmarked) [Example E12]: the herbicidal activity pre-emergence entry in assay [1] was “very good herbicidal activity”. Besides, in assay [2], the herbicidal activity post-emergence entry is reported as “very good herbicidal activity”.
`CC(F)c1nc(N)nc(NC2CCN(c3ccccc3)C2=O)n1` (centres unmarked) [Example A11]: the herbicidal activity pre-emergence entry in assay [1] is listed as “very good herbicidal activity”. In addition, in assay [2], the herbicidal activity post-emergence result is listed as “very good herbicidal activity”.
`CC(F)c1nc(N)nc(NC2CCN(c3cccc(Cl)c3)C2)n1` (centres unmarked) [Example E17]: the herbicidal activity pre-emergence entry in assay [1] is recorded as “very good herbicidal activity”. Further, in assay [2], the herbicidal activity post-emergence entry was “very good herbicidal activity”.
As to `CC(C)c1nc(N)nc(OC2CCN(C(C)(C)c3cccc(Cl)c3)C2=O)n1` (centres unmarked) [Example F2], in assay [1], the herbicidal activity pre-emergence entry was “very good herbicidal activity”. In assay [2], the herbicidal activity post-emergence entry is reported as “very good herbicidal activity”.
As to `Cc1cccc(N2CCC(N(C)c3nc(N)nc(C(C)C)n3)C2=O)c1` (centres unmarked) [Example A74], the herbicidal activity pre-emergence result in assay [1] is given as “very good herbicidal activity”. Moreover, in assay [2], the herbicidal activity post-emergence entry is reported as “very good herbicidal activity”.
Turning to `Cc1cc(C)cc(N2CCC(Nc3nc(N)nc(C(C)F)n3)C2)c1` (centres unmarked) [Example E26], in assay [1], the herbicidal activity pre-emergence result is “very good herbicidal activity”. Further, in assay [2], the herbicidal activity post-emergence result is listed as “very good herbicidal activity”.
For `CC(C)(F)c1nc(N)nc(OC2CCN(c3cccc(Cl)c3)C2=O)n1` (centres unmarked) [Example A61], the herbicidal activity pre-emergence result in assay [1] was “very good herbicidal activity”. In addition, the herbicidal activity post-emergence entry in assay [2] is listed as “very good herbicidal activity”.
For `CC(F)c1nc(N)nc(N(C)C2CCN(c3cccc(OC(F)(F)F)c3)C2=O)n1` (centres unmarked) [Example A63], in assay [1], the herbicidal activity pre-emergence entry is “very good herbicidal activity”. Also, the herbicidal activity post-emergence entry in assay [2] was “very good herbicidal activity”.
Regarding `Cc1cccc(N2CCC(Nc3nc(N)nc(C(C)F)n3)C2=O)c1` (centres unmarked) [Example A13], in assay [1], the herbicidal activity pre-emergence result was “very good herbicidal activity”. For the same compound, the herbicidal activity post-emergence entry in assay [2] is reported as “very good herbicidal activity”.
`Cc1cccc(N2CCC(Nc3nc(N)nc(C(C)(C)F)n3)C2=O)c1` (centres unmarked) [Example A33]: the herbicidal activity pre-emergence result in assay [1] was “very good herbicidal activity”. Further, in assay [2], the herbicidal activity post-emergence entry is reported as “very good herbicidal activity”.
As for `CC(C)c1nc(N)nc(N(C)C2CCN(c3cccc(Cl)c3)C2=O)n1` (centres unmarked) [Example A72], the herbicidal activity pre-emergence entry in assay [1] is listed as “very good herbicidal activity”. Moreover, the herbicidal activity post-emergence entry in assay [2] is listed as “very good herbicidal activity”.
Consider `CN(c1nc(N)nc(C(C)(C)F)n1)C1CCN(c2cccc(F)c2)C1=O` (centres unmarked) [Example A82], for which the herbicidal activity pre-emergence entry in assay [1] was “very good herbicidal activity”. For the same compound, in assay [2], the herbicidal activity post-emergence entry is reported as “very good herbicidal activity”.
As for `Cc1cc(N2CCC(Oc3nc(N)nc(C(C)(C)F)n3)C2=O)ccc1F` (centres unmarked) [Example A58], the herbicidal activity pre-emergence entry in assay [1] is “very good herbicidal activity”. The herbicidal activity post-emergence result in assay [2] is “very good herbicidal activity”.
On to `CC(C)c1nc(N)nc(N(C)C2CCN(c3cccc(OC(F)(F)F)c3)C2)n1` (centres unmarked) [Example E67], for which the herbicidal activity pre-emergence entry in assay [1] was “very good herbicidal activity”. Moreover, in assay [2], the herbicidal activity post-emergence result is listed as “very good herbicidal activity”.
